In experiment [1] the target is T1, PfHT (Plasmodium falciparum, UniProt Q7KWJ5).
T1 sequence (Q7KWJ5 1-504): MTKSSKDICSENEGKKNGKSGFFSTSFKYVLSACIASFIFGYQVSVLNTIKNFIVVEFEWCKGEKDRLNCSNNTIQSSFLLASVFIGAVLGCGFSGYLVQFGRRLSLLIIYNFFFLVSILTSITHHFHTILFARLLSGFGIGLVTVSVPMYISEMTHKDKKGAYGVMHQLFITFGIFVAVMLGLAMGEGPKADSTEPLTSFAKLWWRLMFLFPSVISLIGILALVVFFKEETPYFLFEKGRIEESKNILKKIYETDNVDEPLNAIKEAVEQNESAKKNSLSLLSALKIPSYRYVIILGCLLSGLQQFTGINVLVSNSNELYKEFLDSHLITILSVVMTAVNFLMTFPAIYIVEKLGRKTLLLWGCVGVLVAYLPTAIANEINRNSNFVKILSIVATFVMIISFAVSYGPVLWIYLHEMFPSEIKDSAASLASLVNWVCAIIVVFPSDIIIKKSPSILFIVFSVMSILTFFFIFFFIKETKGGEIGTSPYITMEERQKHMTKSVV
Put plainly: [3H]-D-fructose uptake by HEK293 cells overexpressing PfHT. Details: expressed in transfected cells; host or cells: HEK293 (HEK293-FLIP, native hGLUT1 knocked down by shRNA). The class given is cell-based. The source says: (§1) Generation of HEK293 cells overexpressing PfHT and human GLUTs 1–4 were described elsewhere. Briefly, HEK293 cells were transfected with pcDNA3.1 FLII12Pglu-7006 (Addgene), containing the fluorescence resonance energy transfer (FRET) glucose sensor (HEK293-FLIP) and PfHT, human GLUT1 (hGLUT1), hGLUT2, hGLUT3, hGLUT4, hGLUT5 or hGLUT8 using Optifect (Life Technologies) according to manufacturer’s specifications. To increase retention of GLUT8 at the plasma membrane, the dileucine sorting signal E^7E^8XXXLL was modified to R^7R^8XXXLL as described in [17]. Stable transfectants were selected for G418 and hygromycin resistance to select for FRET sensor and hexose transporter, respectively. HEK293-FLIP cells were also used to generate cells stably transfected with FLAG-tagged PfHT (FTPfHT). FLAG tag ([…]) followed by a triple glycine linker and a tobacco etch virus (TEV) protease site (ENLYFQS) followed by a triple glycine linker was added to the N-terminus of PfHT via PCR [18] using Phusion Hot Start II High-Fidelity DNA Polymerase (Fisher Scientific). Single clones were selected by comparing their abilities to transport glucose as assayed via FRET and radiolabeled hexose uptake. In all cell lines, except for HEK293 cells overexpressing hGLUT1 and hGLUT5, native hGLUT1 was knocked down using shRNA as described elsewhere. Transcript levels of the individual GLUTs expressed in each cell line are as described in [13, 15] and in S1 Fig.
(§2) Glucose uptake by P. falciparum was performed essentially as described. P. falciparum strain 3D7 was cultured in 100 mm tissue culture dishes (Techno Plastic Products) in a 2% suspension of human erythrocytes and RPMI 1640 medium until reaching > 7.5% parasitemia. Cells were pelleted via centrifugation and resuspended in RPMI 1640 medium. To determine the uptake of radiolabeled glucose into the parasite, parasites were isolated from infected erythrocytes by permeablization with saponin (0.05 w/v), followed by centrifugation, aspiration of supernatant and washing of the pellet 3X with saline solution (135 mM NaCl, 2 mM KCl, 25 mM HEPES, 0.2 mM glucose and 1 mM MgCl2; pH 7.1) to remove cellular debris. WU-1 or DMSO vehicle were added to 100 μl parasites (resuspended in saline) 5 min prior to the addition of 100 μl [^14C]2-DOG (0.2- μCi/ml final concentration). 2-DG uptake was stopped after 2 min by layering the entire reaction over 300 μl of an oil mixture (5:4 mix of dibutyl phthalate / dinonyl phthalate) in Eppendorf tubes and centrifuged at 15,850 × g for 2 mins. The ratio of the estimated intracellular concentration of radiolabel relative to the extracellular concentration were calculated as described. Uptake of radiolabeled hexose into HEK293 cells was measured in glucose-free HBSS as described previously. Briefly, cells were plated at 400,000 cells/well overnight at 37°C in 24-well plates pre-treated with PEI. After 30-min incubation at 37°C in glucose-free HBSS in the presence of vehicle or increasing concentrations of compound, 2-DG uptake was measured in glucose-free HBSS for 4 min at 37°C. Cultures were washed in ice-cold 1X PBS and lysed in 0.1% Triton X-100 in 1X PBS. Radiolabeled hexose uptake was determined by liquid scintillation counting (Ultima Gold, Thermo Fisher) and normalized to total protein per well. Uptake data are plotted as percent uptake relative to vehicle-treated cells. Kinetic analyses were performed using the indicated concentrations of substrate and WU-1, with quenching of uptake after 1 min incubation. Incubation times had been previously determined as being in the linear range of time-dependent radiolabeled hexose uptake (2 min for 2-DG uptake into freed parasites; 2 and 4 min for D-Frc and 2-DG uptake HEK cell lines, respectively). Data were fit by least squares nonlinear regression analysis using GraphPad Prism 6.0 software.

Experiment [2] deals with T2, FTPfHT (Plasmodium falciparum, UniProt Q7KWJ5).
T2 sequence (Q7KWJ5 1-504): T1 sequence (Q7KWJ5 1-504)
The experiment can be described thus: 2-DG uptake by HEK293 cells overexpressing FLAG-tagged PfHT (FTPfHT). It is filed as cell-based. On the set-up: the 38–40 kDa band represents full length PfHT; expressed in transfected cells; host or cells: HEK293-FLIP (HEK293). The conditions noted are these: for remaining activity at 0.001 µM: concentration 0.001 µM, Expt 1-3.
From the text: as §1, §2

In experiment [3] the test system is GLUT1 Y293I. Details: method as in PMID 8157690. The conditions noted are these: GLUT1 Y293I vs wild type; cited from earlier work.
The mark [4] stands for this setting: FTPfHT, 2-DG Uptake, average of Expt 1-3, read-out: AVE IC50.
[5] abbreviates: FTPfHT, 2-DG Uptake, single experiments Expt 1-3, read-out: IC50.
The mark [6] stands for this setting: HEK293, 4 min, FTPfHT, read-out: 2-DG Uptake AVE.
Where [7] appears, read: IC50 for inhibition of 2-DG uptake, HEK293 cells overexpressing FTPfHT.

Molecules are shown by their SMILES. Values joined by “and” are separate entries in the source; they are usually repeats but may differ in a detail not shown here. Identical values can stand only once. Like-named read-outs stand apart in the source and are kept apart here.

With `Cc1ccc(S(=O)(=O)CCNC(=O)c2c(-c3c(Cl)cccc3Cl)noc2C)cc1` [WU-1, 3-(2,6-dichlorophenyl)-5-methyl-N-[2-(4-methylbenzenesulfonyl)ethyl]-1,2-oxazole-4-carboxamide], the IC50 in experiment [1] (AVE IC50 (µM), PfHT, D-frc Uptake, average of Expt 1-3) is 4.99 µM; in experiment [1] (IC50 (µM), PfHT, D-frc Uptake, single experiments Expt 1-3), 4.57 µM and 6.26 µM and 4.14 µM; in experiment [1] (IC50, D-fructose (Frc) uptake, PfHT cell line), 5 ± 0.7 µM; in experiment [2] (setting [4]) it was 19.5 µM; in experiment [2] (setting [5]) it was 19.2 µM and 18.9 µM and 20.5 µM; in experiment [2] (setting [7]), 19.5 ± 0.5 µM. Besides, the remaining activity at 0.001 µM in experiment [1] (HEK293, 2 min, read-out: D-frc Uptake AVE, PfHT, concentration 0.001 µM, Expt 1-3) was found to be 101%; in experiment [2] (setting [6]) it was 100%. The remaining activity at 0.63 µM in experiment [1] (HEK293, 2 min, read-out: D-frc Uptake AVE, PfHT, concentration 0.63 µM) is 80.7%. In addition, the remaining activity at 1.25 µM came out at 72.3% in experiment [1] (HEK293, 2 min, read-out: D-frc Uptake AVE, PfHT, concentration 1.25 µM) and 81.9% in experiment [2] (HEK293, 4 min, FTPfHT, concentration 1.250 µM, read-out: 2-DG Uptake AVE). The remaining activity at 2.5 µM in experiment [1] (HEK293, 2 min, read-out: D-frc Uptake AVE, PfHT, concentration 2.50 µM) came to 68.5%; in experiment [2] (HEK293, 4 min, FTPfHT, concentration 2.500 µM, read-out: 2-DG Uptake AVE), 84.9%. The remaining activity at 5 µM came to 49.6% in experiment [1] (HEK293, 2 min, read-out: D-frc Uptake AVE, PfHT, concentration 5.00 µM) and 80.6% in experiment [2] (HEK293, 4 min, FTPfHT, concentration 5.0 µM, read-out: 2-DG Uptake AVE). Further, the remaining activity at 10 µM in experiment [1] (HEK293, 2 min, read-out: D-frc Uptake AVE, PfHT, concentration 10.00 µM) was 37.9%; in experiment [2] (HEK293, 4 min, FTPfHT, concentration 10.0 µM, read-out: 2-DG Uptake AVE) it was 64.8%. The remaining activity at 20 µM turned out to be 22.3% in experiment [1] (HEK293, 2 min, read-out: D-frc Uptake AVE, PfHT, concentration 20.00 µM) and 52.4% in experiment [2] (HEK293, 4 min, FTPfHT, concentration 20 µM, read-out: 2-DG Uptake AVE). In addition, the remaining activity at 40 µM in experiment [1] (HEK293, 2 min, read-out: D-frc Uptake AVE, PfHT, concentration 40.00 µM) came to 15.6%; in experiment [2] (HEK293, 4 min, FTPfHT, concentration 40 µM, read-out: 2-DG Uptake AVE), 41.1%. For the same molecule, the remaining activity at 80 µM in experiment [1] (HEK293, 2 min, read-out: D-frc Uptake AVE, PfHT, concentration 80.00 µM) is 10.7%; in experiment [2] (HEK293, 4 min, FTPfHT, concentration 80 µM, read-out: 2-DG Uptake AVE) it was 29.3%. Also, the remaining activity at 225 µM was found to be 8.85% in experiment [1] (HEK293, 2 min, read-out: D-frc Uptake AVE, PfHT, concentration 225.00 µM) and 17.1% in experiment [2] (HEK293, 4 min, FTPfHT, concentration 225 µM, read-out: 2-DG Uptake AVE). Besides, the remaining activity at 160 µM in experiment [1] (HEK293, 2 min, read-out: D-frc Uptake AVE, PfHT, concentration […]) stood at 7.62%; in experiment [2] (HEK293, 4 min, FTPfHT, concentration 160 µM, read-out: 2-DG Uptake AVE), 19.9%. Moreover, the “Selectivity Index, Frc, PfHT line itself” value in experiment [1] (reference value) amounted to 1.0. Further, in experiment [2] (HEK293, 4 min, FTPfHT, concentration 0.313 µM, read-out: 2-DG Uptake AVE), the remaining activity at 0.313 µM was determined as 95.9%. Further, the remaining activity at 0.625 µM in experiment [2] (HEK293, 4 min, FTPfHT, concentration 0.625 µM, read-out: 2-DG Uptake AVE) stood at 92.1%.

Turning to `C=C1[C@@H](C)[C@H]2[C@H](Cc3ccccc3)NC(=O)[C@]23OC(=O)/C=C/[C@H](O)CCC[C@@H](C)C/C=C/[C@H]3[C@@H]1O` [CB, cytochalasin B], the IC50 in experiment [2] (setting [4]) is 29.9 µM; in experiment [2] (setting [5]), 26.6 µM and 30.5 µM and 32.6 µM; in experiment [2] (setting [7]), 29.9 ± 1.8 µM. In addition, in experiment [2] (setting [6]), the remaining activity at 0.001 µM is 100%. Further, in experiment [2] (HEK293, 4 min, FTPfHT, concentration 0.3906 µM, read-out: 2-DG Uptake AVE), the remaining activity at 0.3906 µM worked out at 97.8%. Also, the remaining activity at 0.7812 µM in experiment [2] (HEK293, 4 min, FTPfHT, concentration 0.7812 µM, read-out: 2-DG Uptake AVE) was 93.2%. Moreover, in experiment [2] (HEK293, 4 min, FTPfHT, concentration 1.56 µM, read-out: 2-DG Uptake AVE), the remaining activity at 1.56 µM worked out at 95.4%. In addition, in experiment [2] (HEK293, 4 min, FTPfHT, concentration 3.125 µM, read-out: 2-DG Uptake AVE), the remaining activity at 3.125 µM was determined as 90%. In addition, the remaining activity at 6.25 µM in experiment [2] (HEK293, 4 min, FTPfHT, concentration 6.25 µM, read-out: 2-DG Uptake AVE) amounted to 81.9%. Besides, the remaining activity at 12.5 µM in experiment [2] (HEK293, 4 min, FTPfHT, concentration 12.5 µM, read-out: 2-DG Uptake AVE) amounted to 72.3%. For the same molecule, the remaining activity at 25 µM in experiment [2] (HEK293, 4 min, FTPfHT, concentration 25 µM, read-out: 2-DG Uptake AVE) is 56%. For the same molecule, the remaining activity at 50 µM in experiment [2] (HEK293, 4 min, FTPfHT, concentration 50 µM, read-out: 2-DG Uptake AVE) amounted to 44.6%. For the same molecule, the remaining activity at 100 µM in experiment [2] (HEK293, 4 min, FTPfHT, concentration 100 µM, read-out: 2-DG Uptake AVE) is 32.2%. Moreover, the remaining activity at 200 µM in experiment [2] (HEK293, 4 min, FTPfHT, concentration 200 µM, read-out: 2-DG Uptake AVE) was 22.7%. For the same molecule, the remaining activity at 400 µM in experiment [2] (HEK293, 4 min, FTPfHT, concentration 400 µM, read-out: 2-DG Uptake AVE) worked out at 12.9%. In addition, in experiment [3], the “increase of Ki by Y293I mutation” value is listed as more than 100 fold.

As a reminder, the IC50 is the midpoint of a concentration-inhibition curve.

The values are drawn from paper PMC6508677, “Identification of druggable small molecule antagonists of the Plasmodium falciparum hexose transporter PfHT and assessment of ligand access to the glucose permeation pathway via FLAG-mediated protein engineering” (PLoS ONE, 2019).
